Assay results as given in ChEMBL document CHEMBL1201862, “PubChem BioAssay data set” (2004).
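A five-concentration, 48-hour dose response in 96-well plates underlies each endpoint, interpolated linearly between surrounding concentrations. GI50: concentration for 50% inhibition of growth.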 Activity calls are given as the source filed them. Rule as the data show it: active = GI50 up to about 1.1 µM and inactive = higher.

Columns and labels:
Experiment in all cases: DTP human tumour cell line panel, 48 h
786-0 = system: 786-0
BT-549 = system: BT-549
HOP-62 = system: HOP-62
IGROV-1 = system: IGROV-1
MCF7 = system: MCF7
MDA-N = system: MDA-N
NCI-H460 = system: NCI-H460
OVCAR-4 = system: OVCAR-4
PC-3 = system: PC-3
RXF 393 = system: RXF 393
SF-539 = system: SF-539
SK-MEL-28 = system: SK-MEL-28
SNB-75 = system: SNB-75
SW-620 = system: SW-620
TK-10 = system: TK-10
UACC-257 = system: UACC-257
ACHN = system: ACHN
Malme-3M = system: Malme-3M
SF-268 = system: SF-268
M14 = system: M14

Measured: GI50

O=c1n(CCCN2CCOCC2)nc2n1-c1ccc3ccccc3c1SC2
inactive: 786-0 16 µM | BT-549 30.7 µM | HOP-62 52.2 µM | IGROV-1 > 100 µM | MCF7 76.7 µM | MDA-N 6.17 µM | NCI-H460 30.2 µM | OVCAR-4 56.9 µM | PC-3 38.6 µM | RXF 393 57.7 µM | SF-539 39.6 µM | SK-MEL-28 36.5 µM | SNB-75 47.8 µM | SW-620 37.5 µM | TK-10 84.1 µM | UACC-257 29.8 µM

CCC[C@@H]1C(=O)N=C(N)N1C(=O)OCc1ccccc1
inactive: 786-0 > 100 µM | ACHN > 100 µM | BT-549 > 100 µM | HOP-62 > 100 µM | IGROV-1 > 100 µM | MCF7 > 100 µM | MDA-N > 100 µM | Malme-3M > 100 µM | NCI-H460 > 100 µM | OVCAR-4 > 100 µM | PC-3 > 100 µM | RXF 393 > 100 µM | SF-268 > 100 µM | SK-MEL-28 > 100 µM | SNB-75 > 100 µM | SW-620 > 100 µM | TK-10 > 100 µM | UACC-257 > 100 µM

O/N=C1/Nc2ccccc2C(=S)N2CSCC12 (stereo not given)
inactive: 786-0 58.2 µM | ACHN > 100 µM | BT-549 > 100 µM | HOP-62 > 100 µM | IGROV-1 > 100 µM | M14 81.3 µM | MCF7 52.5 µM | MDA-N 18.3 µM | Malme-3M > 100 µM | NCI-H460 17.3 µM | OVCAR-4 > 100 µM | PC-3 73.8 µM | RXF 393 > 100 µM | SF-268 78 µM | SK-MEL-28 > 100 µM | SNB-75 16.4 µM | SW-620 35.6 µM | TK-10 > 100 µM | UACC-257 > 100 µM

CCOC(=O)C1=COC(C)(CCc2ccccc2)CC1=O (stereo not given)
inactive: 786-0 > 100 µM | ACHN > 100 µM | BT-549 71.4 µM | HOP-62 > 100 µM | M14 > 100 µM | MCF7 44 µM | MDA-N 87.7 µM | NCI-H460 92.5 µM | OVCAR-4 > 100 µM | PC-3 89.1 µM | RXF 393 59.4 µM | SF-268 > 100 µM | SF-539 66.5 µM | SK-MEL-28 > 100 µM | SNB-75 > 100 µM | SW-620 > 100 µM | TK-10 > 100 µM | UACC-257 > 100 µM

CCOC(=O)C1=c2[nH]c3cccc4cccc(c43)n2C(=O)CC1c1ccccc1 (stereo not given)
inactive: 786-0 > 100 µM | ACHN > 100 µM | BT-549 > 100 µM | HOP-62 > 100 µM | IGROV-1 > 100 µM | M14 > 100 µM | MCF7 > 100 µM | MDA-N > 100 µM | Malme-3M > 100 µM | NCI-H460 > 100 µM | OVCAR-4 > 100 µM | PC-3 > 100 µM | RXF 393 > 100 µM | SF-268 > 100 µM | SK-MEL-28 > 100 µM | SNB-75 > 100 µM | SW-620 > 100 µM | TK-10 > 100 µM | UACC-257 > 100 µM

CCOC(=O)/C=C/C(Br)=C(Br)/C=C/C(=O)OCC
inactive: 786-0 3.01 µM | ACHN 12.3 µM | BT-549 5.62 µM | HOP-62 17.9 µM | IGROV-1 14.2 µM | M14 13.3 µM | MCF7 7.93 µM | MDA-N 10.3 µM | Malme-3M 3.4 µM | NCI-H460 33.9 µM | OVCAR-4 17.7 µM | PC-3 13.5 µM | RXF 393 8.93 µM | SF-268 18 µM | SK-MEL-28 12.4 µM | SNB-75 12.4 µM | TK-10 14.2 µM | UACC-257 18.2 µM

Clc1ccc(OCc2nnc(CCCCCCCCc3nnc(COc4ccc(Cl)cc4Cl)o3)o2)c(Cl)c1
inactive: 786-0 47.1 µM | ACHN > 100 µM | BT-549 > 100 µM | IGROV-1 9.4 µM | M14 > 100 µM | MCF7 42.3 µM | MDA-N > 100 µM | Malme-3M 9.44 µM | NCI-H460 79.6 µM | OVCAR-4 92.9 µM | PC-3 60.3 µM | RXF 393 > 100 µM | SF-268 42 µM | SK-MEL-28 > 100 µM | SNB-75 > 100 µM | SW-620 > 100 µM | TK-10 > 100 µM | UACC-257 > 100 µM

CCOP(=O)(OCC)c1cc(-c2ccccc2)ccc1N
inactive: 786-0 > 100 µM | ACHN > 100 µM | BT-549 > 100 µM | HOP-62 37.2 µM | IGROV-1 > 100 µM | M14 > 100 µM | MCF7 > 100 µM | MDA-N > 100 µM | Malme-3M > 100 µM | NCI-H460 > 100 µM | OVCAR-4 89.1 µM | PC-3 > 100 µM | RXF 393 33 µM | SF-268 > 100 µM | SK-MEL-28 > 100 µM | SNB-75 81.7 µM | SW-620 > 100 µM | TK-10 > 100 µM | UACC-257 > 100 µM

CCc1nc(N)nc(N)c1-c1ccc(N2CCOCC2)c(N=[N+]=[N-])c1
inactive: 786-0 57.3 µM | ACHN 46 µM | BT-549 > 78.2 µM | HOP-62 > 100 µM | IGROV-1 28.2 µM | M14 54.3 µM | MCF7 71.3 µM | MDA-N 57.1 µM | NCI-H460 8.85 µM | OVCAR-4 70.6 µM | PC-3 42.6 µM | RXF 393 > 83.2 µM | SF-268 44.7 µM | SF-539 75.5 µM | SK-MEL-28 > 100 µM | SNB-75 > 92 µM | SW-620 41.9 µM | TK-10 > 100 µM | UACC-257 > 100 µM

COc1c(C)c(C/C=C(\C)CC/C=C(\C)CC/C=C(\C)CC/C=C(\C)CCC=C(C)C)c(OC)c(OC)c1OC
inactive: 786-0 16.9 µM | ACHN 16.4 µM | BT-549 85.1 µM | HOP-62 15.6 µM | IGROV-1 26.9 µM | M14 50.9 µM | MCF7 51.1 µM | MDA-N 31.4 µM | NCI-H460 8.81 µM | OVCAR-4 19.9 µM | PC-3 52.8 µM | RXF 393 17.4 µM | SF-268 18.6 µM | SF-539 > 100 µM | SNB-75 43 µM | SW-620 97.7 µM | TK-10 24 µM | UACC-257 80.5 µM

CCCCCCCCCCCCc1ccsc1-c1ccc(-c2ccc(-c3sccc3CCCCCCCCCCCC)s2)s1
inactive: 786-0 > 100 µM | ACHN > 100 µM | BT-549 > 100 µM | HOP-62 > 100 µM | IGROV-1 > 100 µM | M14 > 100 µM | MCF7 > 100 µM | MDA-N > 100 µM | NCI-H460 > 100 µM | PC-3 > 100 µM | RXF 393 > 100 µM | SF-268 > 100 µM | SF-539 > 100 µM | SK-MEL-28 > 100 µM | SNB-75 > 100 µM | SW-620 > 100 µM | TK-10 > 100 µM | UACC-257 > 100 µM
